Laboratory results taken from patent US20220017863A1, “SIRT2-ABLATED CHIMERIC T CELLS” (H. Lee Moffitt Cancer Center and Research Institute, Inc., priority 2019, published 2022).
Entries after “also recorded” stand apart in the source; their conditions may differ.

What was measured:
Assay type in all cases: cell-based
[1] = test system: human TILs; experiment: Seahorse extracellular flux analysis of CD3-stimulated human TILs from NSCLC patients; conditions: anti-CD3 plus AGK2 vs vehicle, 48 hr
Method: Human tumor infiltrating lymphocytes (hTILs) samples isolated from tumor biopsies of patients with nonsmall cell lung cancer (NSCLC) were generously provided by Dr. Antonia lab (Moffitt Cancer Center). All human samples remained totally de-identified and no Institutional Review Board (IRB) approval was needed.
hTILs were maintained in RPMI 1640 Medium, supplemented with 10% human AB serum (Valley Biomedical, Inc.), 1 mM Hepes (Sigma-Aldrich), 1% P/S (Thomas Scientific Inc), 50 μg/ml Gentamicin (ThermoFisher Scientific), 50 μM […] (ThermoFisher Scientific) and 6000 U/ml of recombinant human IL-2 (Peprotech).
Extracellular acidification rates (ECAR) were measured using the Seahorse XF analyzer (Agilent). […]
For GST, ECAR was measured under basal conditions and in response to 10 mM glucose, 1 μM oligomycin and 50 mM 2-DG successively to calculate basal glycolytic rate, glycolytic capacity (in response to oligomycin), and glycolytic reserve (glycolytic capacity−basal rate). For GRA, ECAR was measured under basal conditions and in response to 0.5 μM rotenone+0.5 μM antimycin A and 50 mM 2-DG successively to calculate basal glycolysis and compensatory glycolysis (in response to rotenone+antimycin A). Results were normalized to total protein quantified using Pierce™ BCA Protein Assay Kit (ThermoFisher Scientific). […]

[2] = test system: human CD3+ T cells; experiment: IFN-γ ELISPOT on human CD3+ T cells from healthy donors; conditions: inhibitor vs vehicle, 48 hr
[3] = test system: human TILs; experiment: IFN-γ ELISPOT on human TILs from NSCLC patients; conditions: AGK2 vs vehicle, 5 patient samples

N#C/C(=C/c1ccc(-c2cc(Cl)ccc2Cl)o1)C(=O)Nc1cccc2ncccc12 [AGK2]
OxPhos (OCR) ([1]; human TILs from 5 NSCLC patients): increased | aerobic glycolysis (ECAR) ([1]; human TILs from NSCLC patients, 5 patient samples): increases | IFN-γ production (effector function) [2]: increases; also recorded: augments | IFN-γ production (effector function) [3]: increases
